Results as given in patent US7893066B2, “Pyridol[2,3-B]pyrazinones for use as stearoyl CoA desaturase inhibitors” (Gilead Palo Alto, Inc., priority 2006, dated 2011).
pIC50: −log10 of the molar value.

These compounds were tested against T1, stearoyl-CoA desaturase (SCD) (Rattus norvegicus, UniProt P07308) (assay: SCD assay, rat liver microsomes with [3H]stearoyl CoA (adapted from Talamo and Bloch)). Conditions: second table, same SCD assay.
T1 construct: from tissue; host or cells: liver microsomes of male Sprague Dawley rats, with SCD induced by a carbohydrate-rich diet
T1 sequence (P07308 1-358): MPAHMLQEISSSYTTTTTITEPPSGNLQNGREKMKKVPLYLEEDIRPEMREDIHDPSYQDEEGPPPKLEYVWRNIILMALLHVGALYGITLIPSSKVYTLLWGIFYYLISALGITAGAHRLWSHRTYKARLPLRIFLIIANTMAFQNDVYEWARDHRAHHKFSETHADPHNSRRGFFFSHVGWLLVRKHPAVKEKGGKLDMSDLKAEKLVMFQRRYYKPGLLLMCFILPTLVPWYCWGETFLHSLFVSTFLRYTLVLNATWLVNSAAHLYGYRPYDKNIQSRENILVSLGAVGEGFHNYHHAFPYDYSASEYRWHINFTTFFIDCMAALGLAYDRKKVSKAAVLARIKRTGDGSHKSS
Assay type: biochemical
Excerpt: The identification of compounds of the invention as SCD inhibitors was readily accomplished using the SCD enzyme and microsomal assay procedure described in Talamo and Bloch (1969) Analytical Biochemistry 29:300-304.
The rat liver microsomes were collected according to the procedure described in Ozols (1990) Methods Enzm, 182:225.
Male Spraque Dawley Rats were placed on regimented fasting protocol for one week to stimulate SCD enzymatic activity. 48-hour periods were alternated between feeding and fasting to induce and down-regulate SCD activity with SCD activity being induced via carbohydrate rich diet prior to liver perfusion and collection.
The rats were anesthetized with Isoflurane inhalation anesthetic, the liver perfused with cold phosphate buffered saline (PBS), weighed, and chilled in cold homogenization buffer (250 mM sucrose, 10 mM Tris, 1 mM EDTA, pH 7.6.
The livers were finely minced and placed in homogenization tube. 40 mL of homogenization buffer was added to the homogenization tube and the liver homogenized and centrifuged in a pre-chilled SLA-600 TC at 800G rotor for 10 min at 4° C.
Following centrifugation, the supernatant was collected and the pellet removed and discarded. This supernatant was then centrifuged at 10,000G for 35 minutes. Following centrifugation, the supernatant was collected and the pellet discarded. The supernatant was further centrifuged in a pre-chilled 45-Ti rotor at 130,000 G (41,000 RPM) for 90 minutes at 4° C.
The supernatant was then aspirated off and the collected microsomal pellet washed in 25 mL of Glycerol PBS (1×PBS 7.4, 20% Glycerol) and resuspended in 4-5 volumes of Glycerol PBS.
The protein concentration of the microsomal preparation was determined by BCA assay (Pierce) and the microsomes were aliquoted and stored at −80° C.
Biobeads were ground to a smaller size in a mortar and pestle and filtered through 300 μM mesh and then resuspended in 3.6% TCA.
SCD was determined in the desaturase assay buffer. This assay buffer contained 0.1 M Tris buffer, pH 7.2, 2 mM NADH, 4.8 mM ATP, 0.5 mM CoA, 4.8 mM MgCl2, and 0.1% BSA.
1 μl of each compound of Formula I was added to an assay plate by a low volume (0.5-10 μL) multichannel pipette. A DMSO control was also prepared. The microsomes were quickly thawed and added to assay buffer so that a concentration of 1-0.1 mg/ml was achieved (0.5-0.05 mg/ml assay final). 50 μl of the microsome suspension in assay buffer was then added into each well in the compound assay plate, the plate was covered, and the microsomes preincubated with the compounds for 30-60 minutes on the orbital shaker, 50-75 rpm, at room temperature.
After preincubation, the reaction was initiated by the addition of 50 μl of substrate solution (20 μM Stearoyl CoA, [3H]Stearoyl CoA, 74nCi) to the preincubated microsomes/compound suspensions in MilliQ (Millipore) H2O. The reaction mixtures were then incubated for 45 minutes on the orbital shaker at 50-75 rpm at room temperature.
The reaction was terminated by the addition of 10 μl of 21% trichloroacetic acid (TCA) to the reaction mixture followed incubation on the orbital shaker for 30 minutes at 50-75 rpm at room temperature followed by centrifugation for 5 minutes at 3700 rpm.
50 μl of a 6% Bio-Bead suspension in H2O was added to the reaction mixture and the assay plate was sealed. The Bio-Bead mixture was incubated on the orbital shaker for 1 to 24 hours, 100-150 rpm at room temperature, and then the mixture was centrifuged at 2000g for 5 minutes to pellet the Bio-Beads.
25 μl of the supernatant was harvested from each well and transferred to a detection plate. 100 μl of OptiPhase SuperMix scinitillation cocktail (containing sufficient NaOH to neutralize the TCA) was added and the solutions mixed by vigorous shaking (300-400 rpm) for 5 minutes at room temperature.

Compound | pIC50
Cc1nc2ccc(NCc3cccc(C(F)(F)F)c3)cc2n(CCC(=O)NCCO)c1=O [compound 50, N-(2-hydroxyethyl)-3-(3-methyl-2-oxo-7-(3-(trifluoromethyl)benzylamino)quinoxalin-1(2H)-yl)propanamide] | 6.64
COc1ccc(-c2nc3ccc(NCc4cc(C(F)(F)F)ccn4)nc3n(CCNC(C)=O)c2=O)cc1 [compound 4, N-(2-(2-(4-methoxyphenyl)-3-oxo-6-((4-(trifluoromethyl)pyridin-2-yl)methylamino)pyrido[2,3-b]pyrazin-4(3H)-yl)ethyl)acetamide] | 6.74
CCc1ccc(-c2nc3ccc(NCc4cccc(C(F)(F)F)c4)nc3n(CCNC(C)=O)c2=O)cc1 [compound 27, N-(2-(2-(4-ethylphenyl)-3-oxo-6-(3-(trifluoromethyl)benzylamino)pyrido[2,3-b]pyrazin-4(3H)-yl)ethyl)acetamide] | 7.03
N-(2-(6-(2-chlorobenzylamino)-2-(4-methoxyphenyl)-3-oxopyrido[2,3-b]pyrazin-4(3H)-yl)ethyl)acetamide [compound 1] | 5.39
3-(3-oxo-2-(4-propylphenyl)-6-(3-(trifluoromethyl)benzylamino)pyrido[2,3-b]pyrazin-4(3H)-yl)propanamide [compound 31] | 6.42
COc1ccc(-c2nc3ccc(NCc4ccc(Cl)c(Cl)c4)nc3n(CCNC(=O)CN(C)C)c2=O)cc1 [compound 32, N-(2-(6-(3,4-dichlorobenzylamino)-2-(4-methoxyphenyl)-3-oxopyrido[2,3-b]pyrazin-4(3H)-yl)ethyl)-2-(dimethylamino)acetamide] | 4.92
N-(2-(6-(3-methoxybenzylamino)-2-(4-methoxyphenyl)-3-oxopyrido[2,3-b]pyrazin-4(3H)-yl)ethyl)acetamide [compound 13] | 6.12
CC(=O)NCCN1C(=O)C(C)Nc2cc(NC(=O)OCc3ccccc3)cnc21 (centres unmarked) [compound 44, benzyl 4-(2-acetamidoethyl)-2-methyl-3-oxo-1,2,3,4-tetrahydropyrido[2,3-b]pyrazin-7-ylcarbamate] | 6.62
